# Assay results: patent US10030027B2, “Soluble guanylate cyclase stimulators” (MERCK SHARP & DOHME CORP., priority 2015, dated 2018)
# Key:
# sGC α1/β1 heterodimer = sGC α1/β1 heterodimer (Homo sapiens (Human), UniProt Q02108+Q02153); experiment: Cell-based sGC functional assay (cyclic GMP assay for sGC activator: CASA assay); design: % Activation: concentration or dose not given beside the values; details: CHO-K1/sGC cells; for Emax: CHO-K1, activity expressed as percentage of compound A (standard), read-out: % Activation; for EC50: inflection point, 4P fit, read-out: IP; for % Activation: activity expressed as percentage of compound A (standard)
# Excerpt: Cell-Based sGC Functional Assay (Cyclic GMP Assay for sGC Activator: CASA Assay)
# Soluble guanylate cyclase (sGC) is a heme-containing enzyme that converts GTP to secondary messenger cGMP. Increases in cGMP levels affect several physiological processes including vasorelaxation through multiple downstream pathways. […] Heme-dependent activators (HDAs) preferentially activate sGC containing a ferrous heme group. To determine the effect of sGC activators on enzyme activity, the CASA assay was developed to monitor the generation of cGMP in a cell line that stably expresses the heterodimeric sGC protein.
# A CHO-K1 cell line stably expressing the sGC α1/β1 heterodimer was generated using a standard transfection protocol. CHO-K1 cells were transfected with plasmids pIREShyghsGCα1 and pIRESneo-hsGCβ1 simultaneously using FUGENE reagent. Clones that stably express both subunits were selected with hygromycin and neomycin for ˜2 weeks. Clone #7 was chosen for the assay and was designated CHO-K1/sGC. CHO-K1/sGC cells were maintained in F-K12 medium containing 10% heat-inactivated Fetal Bovine Serum (FBS), 100 μg/mL penicillin/streptomycin, 0.5 mg/mL hygromycin and 0.25 mg/mL G418. The cells were then cryopreserved in LN2. On the day of the assay, the cells were thawed and resuspended in EBSS Assay Buffer (Sigma, E3024) supplemented with 5 mM MgCl2, 10 mM HEPES (4-(2-hydroxyethyl)piperazine-1-ethanesulfonic acid) and 0.05% BSA (bovine serum albumin) (EAB) and cell density was then adjusted to 2.25×10^5/mL with EAB. IBMX (3-isobutyl-1-methylxanthin, 0.5 mM) was added to inhibit degradation of cGMP. Compounds were diluted from DMSO stock solutions and added to the assay at a final DMSO concentration of 2.5%. Cells were pre-incubated in the presence and absence of 1 μM of Diethylenetriamine/nitric oxide adduct (DETA-NO; Sigma, 17018) for 30 min at 25° C. Compounds are subsequently added and incubated for 1 hr at 37° C. At the end of the incubation period, the reaction was terminated and the cells were lysed with the detection reagents from Cisbio Kits. The level of intracellular cGMP was determined using an HTRF-based assay kit (CisBio, 62GM2PEC), which detects the displacement of a fluorescence labeled cGMP from its specific antibody. The cGMP produced by test compounds was directly compared to the maximum cGMP production (this value was set to equal 100% activation.) of the published sGC-HDA compound A:
# (Example 1 in WO 2010/065275, published Jun. 10, 2010). The test compounds' activity were then expressed as a percentage of compound A, the standard in every experiment. This percent activation was calculated either in the presence or absence of DETA-NO which was then plotted. Inflection points (IP) and maximum fold induction was derived using Abase analysis software for 4P fit.
# [1] = biological target: human recombinant sGC enzyme (Homo sapiens (Human), UniProt Q02108+Q02153); experiment: Size Exclusion Chromatography (SEC) competition binding assay using [3H] Ex-77B as the radioligand; details: [3H] Ex-77B radioligand, 24 hours at 37° C.
# Method: Binding Assay: The binding potencies of sGC compounds to the human recombinant sGC enzyme were determined in a Size Exclusion Chromatography (SEC) competition binding assay using [^3H] Ex-77B as the radioligand. [^3H] Ex-77B was prepared using a standardardized tritium exchange procedure. The parent (non-labeled) molecule was first iodinated then a Pd-catalyzed iodine to tritium exchange provided the labeled compound. […] Assays were conducted in 96-well plates in a total volume of 200 μL. […] Non-specific binding was defined by competition with 1 μM of Ex-77B. After the incubation period, the binding mixtures were loaded onto the gel-filtration plate (ThermoFischer Cat. No. 89808) pre-equilibrated with binding buffer and spun at 1000×g for 3 min at 4° C. on a Bench top centrifuge. The collected eluates in White Frame Clear Well Isoplates (Perkin Elmer Cat #6005040) received 100 μl of UltimaGold scintillation cocktail. The sealed plates were shaken vigorously and span, and counted after 6 hours with a Wallac Microbeta TriLux 1450 LSC & Luminescence Counter (Perkin Elmer). Data from competition experiments were analyzed to determine Ki values using one site fit Ki equation.
Compound,Emax (sGC α1/β1 heterodimer) [%],EC50 (sGC α1/β1 heterodimer) [nM],Ki [1] [nM],% Activation (sGC α1/β1 heterodimer) [%]
"COCCn1nc(-c2nc(N)c3c(n2)NC(=O)[C@@]3(C)c2ccc(CCC(=O)O)cc2)c2ccc(Cl)cc21 (single isomer, unassigned) [Example 40B]",94,2560,4.38,–
"C[C@@]1(c2ccc(CCC(=O)O)cc2)C(=O)Nc2nc(-c3nn(Cc4ncccc4F)c4cc(Cl)ccc34)nc(N)c21 (single isomer, unassigned) [Example 57B]",104,1080,0.096,–
"C[C@@]1(c2ccc(CCC(=O)O)cc2)C(=O)Nc2nc(-c3nn(Cc4c(F)cccc4F)c4cc(Cl)ccc34)nc(N)c21 (single isomer, unassigned) [Example 64B]",101,302,0.075,–
"CC(C)(Cc1csc([C@]2(C)C(=O)Nc3nc(-c4nn(CC5CCCCO5)c5ncccc45)nc(N)c32)n1)C(=O)O (single isomer, unassigned) [Example 123AA]",79,880,1.23,–
"CC(C)(Cc1csc([C@]2(C)C(=O)Nc3nc(-c4nn(CC5CCCCO5)c5ncccc45)nc(N)c32)n1)C(=O)O (single isomer, unassigned) [Example 123AB]",–,1960,0.874,95.8
"CC(C)(Cc1coc(C2(C)C(=O)Nc3nc(-c4nn(CC5CCCCO5)c5ncccc45)nc(N)c32)n1)C(=O)O (single isomer, unassigned) [Example 124AA, 3-{2-[4-amino-5-methyl-6-oxo-2-{1-[tetrahydro-2H-pyran-2-ylmethyl]-1H-pyrazolo[3,4-b]pyridin-3-yl}-6,7-dihydro-5H-pyrrolo[2,3-d]pyrimidin-5-yl]-1,3-oxazol-4-yl}-2,2-dimethylpropanoic acid]",76.5,1600,0.506,–
"CC1CCC(Cn2nc(-c3nc(N)c4c(n3)NC(=O)C4(C)c3nc(CC(C)(C)C(=O)O)co3)c3cccnc32)CC1 (single isomer, unassigned) [Example 126AB, 3-{2-[4-amino-5-methyl-2-{1-[4-methylcyclohexylmethyl]-1H-pyrazolo[3,4-b]pyridin-3-yl}-6-oxo-6,7-dihydro-5H-pyrrolo[2,3-d]pyrimidin-5-yl]-1,3-oxazol-4-yl}-2,2-dimethylpropanoic acid]",–,199,0.077,109.2
"CC(C)(Cc1csc([C@]2(C)C(=O)Nc3nc(-c4nn(CC5CCCCO5)c5cc(F)ccc45)nc(N)c32)n1)C(=O)O (single isomer, unassigned) [Example 133AA]",104,657,0.513,–
"CC(C)(Cc1csc([C@]2(C)C(=O)Nc3nc(-c4nn(CC5CCCCO5)c5cc(F)ccc45)nc(N)c32)n1)C(=O)O (single isomer, unassigned) [Example 133AB]",–,714,0.359,111.4
"CC(C)(Cc1coc(C2(C)C(=O)Nc3nc(-c4nn(CC5CCCCO5)c5cc(F)ccc45)nc(N)c32)n1)C(=O)O (single isomer, unassigned) [Example 134AA, 3-{2-[4-amino-2-{6-fluoro-1-[tetrahydro-2H-pyran-2-ylmethyl]-1H-indazol-3-yl}-5-methyl-6-oxo-6,7-dihydro-5H-pyrrolo[2,3-d]pyrimidin-5-yl]-1,3-oxazol-4-yl}-2,2-dimethylpropanoic acid]",104,807,0.32,–
"CC(C)(Cn1cc(C2(C)C(=O)Nc3nc(-c4nn(Cc5ccccc5F)c5cc(Cl)ccc45)nc(N)c32)nn1)C(=O)O (single isomer, unassigned) [Example 140A, 3-(4-{4-Amino-2-[6-chloro-1-(2-fluorobenzyl)-1H-indazol-3-yl]-5-methyl-6-oxo-6,7-dihydro-5H-pyrrolo[2,3-d]pyrimidin-5-yl}-1H-1,2,3-triazol-1-yl)-2,2-dimethylpropanoic acid]",–,798,0.227,–

# The remaining lines, values ahead:
Emax (sGC α1/β1 heterodimer) [%],EC50 (sGC α1/β1 heterodimer) [nM],Ki [1] [nM],% Activation (sGC α1/β1 heterodimer) [%],Compound
138,56,0.336,–,"CC1CCC(Cn2nc(-c3nc(N)c4c(n3)NC(=O)[C@@]4(C)c3nc(CC(C)(C)C(=O)O)cs3)c3cccnc32)CC1 (single isomer, unassigned) [Example 125AB]"
–,74,0.1,89.0,"CC1CCC(Cn2nc(-c3nc(N)c4c(n3)NC(=O)C4(C)c3nc(CC(C)(C)C(=O)O)co3)c3cccnc32)CC1 (single isomer, unassigned) [Example 126AA, 3-{2-[4-amino-5-methyl-2-{1-[4-methylcyclohexylmethyl]-1H-pyrazolo[3,4-b]pyridin-3-yl}-6-oxo-6,7-dihydro-5H-pyrrolo[2,3-d]pyrimidin-5-yl]-1,3-oxazol-4-yl}-2,2-dimethylpropanoic acid]"
109,125,0.105,–,"CC1CCC(Cn2nc(-c3nc(N)c4c(n3)NC(=O)C4(C)c3nc(CC(C)(C)C(=O)O)co3)c3ccc(Cl)cc32)CC1 (single isomer, unassigned) [Example 132AA, 3-{2-[4-amino-2-{6-chloro-1-[4-methylcyclohexylmethyl]-1H-indazol-3-yl}-5-methyl-6-oxo-6,7-dihydro-5H-pyrrolo[2,3-d]pyrimidin-5-yl]-1,3-oxazol-4-yl}-2,2-dimethylpropanoic acid]"
–,89,0.074,109.2,"CC1CCC(Cn2nc(-c3nc(N)c4c(n3)NC(=O)C4(C)c3nc(CC(C)(C)C(=O)O)co3)c3ccc(Cl)cc32)CC1 (single isomer, unassigned) [Example 132AB, 3-{2-[4-amino-2-{6-chloro-1-[4-methylcyclohexylmethyl]-1H-indazol-3-yl}-5-methyl-6-oxo-6,7-dihydro-5H-pyrrolo[2,3-d]pyrimidin-5-yl]-1,3-oxazol-4-yl}-2,2-dimethylpropanoic acid]"
78.2,11,0.252,–,"CC1CCC(Cn2nc(-c3nc(N)c4c(n3)NC(=O)[C@@]4(C)c3nc(CC(C)(C)C(=O)O)cs3)c3ccc(F)cc32)CC1 (single isomer, unassigned) [Example 136AA]"
–,23,0.218,71.4,"CC1CCC(Cn2nc(-c3nc(N)c4c(n3)NC(=O)[C@@]4(C)c3nc(CC(C)(C)C(=O)O)cs3)c3ccc(F)cc32)CC1 (single isomer, unassigned) [Example 136AB]"
–,193,0.665,–,"CC1(c2cn(C(C)(C)C(=O)O)nn2)C(=O)Nc2nc(-c3nn(Cc4ccccc4F)c4cc(Cl)ccc34)nc(N)c21 (single isomer, unassigned) [Example 141A, 2-(4-{4-Amino-2-[6-chloro-1-(2-fluorobenzyl)-1H-indazol-3-yl]-5-methyl-6-oxo-6,7-dihydro-5H-pyrrolo[2,3-d]pyrimidin-5-yl}-1H-1,2,3-triazol-1-yl)-2-methylpropanoic acid]"
131,194,0.124,–,"CC(C)(Cc1csc([C@]2(C)C(=O)Nc3nc(-c4nn(CC5CCCCC5)c5ncccc45)nc(N)c32)n1)C(=O)O (single isomer, unassigned) [Example 151A]"
119,145,0.118,–,"CC(C)(Cc1csc([C@]2(C)C(=O)Nc3nc(-c4nn(CC5CCCC5)c5ncccc45)nc(N)c32)n1)C(=O)O (single isomer, unassigned) [Example 153A]"
